Test results taken from patent publication US4935440A, “3-[ω-(3,5-Di-t-butyl-4-hydroxyphenyl)alkyl]pyrroles, and anti-inflammatory uses thereof” (Syntex (U.S.A.) Inc., priority 1989, dated 1990).
Values joined by “and” are separate entries in the source; they are usually repeats but may differ in a detail not shown here. Equal values may be shown once.

Key:
[1] = test system: mice; experiment: Arachidonic Acid-Induced Mouse Ear Edema Assay "AAI"; assay type: in vivo; conditions: topical in acetone
Protocol: Topical anti-inflammatory activity is determined by the Arachidonic Acid-Induced Mouse Ear Edema "AAI" Assay, as is well accepted in the art. A modification of the assay described by Young, et al., supra., is performed as follows:
The test materials are prepared as solutions in acetone and applied to the right ears of mice, in groups of eight (8), at hour 0. At hour 1, 2 mg of arachidonic acid in acetone solution is applied to the right ears of the mice to induce an inflammatory response. The left ears of these animals serves as negative controls. At hour 2 the mice are sacrificed; their ears are removed and 8 mm diameter full thickness plugs are cut from the tip of each ear. The plugs are weighed and the mean right and left plug weights are calculated for each group. The results are expressed as percent inhibition of ear plug weight increase relative to a positive control group receiving only acetone at hour 0.

[2] = test system: Female Hla:(SD) BR rats; experiment: Adjuvant-Induced Arthritis Assay "AI"; assay type: in vivo, rat; conditions: oral, day 18, vs control animals
Protocol: Anti-inflammatory activity is determined by the Adjuvant-Induced Arthritis ("AI") Assay, as is well accepted in the art. A modification of the assay described by Pearson, et al., supra., is performed as follows:
Female Hla:(SD) BR rats weighting 160-180 g are randomly distributed to treatment groups of 12 animals, and given food and water ad libitum. Test materials are prepared fresh weekly as suspensions in carboxymethyl cellulose. The test animals are orally dosed with the suspensions in volumes of 1 ml twice per day Monday through Friday, and with 2 ml once per day on Saturdays and Sundays. […] At time 0, rats are injected intradermally in the proximal quarter of the tail with 0.1 ml of a mineral oil suspension of heat-killed Mycobacterium butyricum (Difco) at a concentration of 10 mg/ml. On day 18 the intensity of swelling in the four paws and tail is estimated visually and scored (0-4 for paws, 0-3 for tail) such that the total maximum score, indicating intense swelling of all four paws and tail, is 19. The animals are then sacrificed; the hind paws of each animal are removed and weighed. The percent inhibition is calculated by comparing the weight increase of the hind paws of the test animals versus the control animals.
The "AI" assay, as described in Example 29, was performed using 3-(3,5-di-t-butyl-4-hydroxybenzoyl)pyrrole (prepared according to Example 2) as the test material.

[3] = as reported by Isomura, et al., Chem. Pharm. Bull., 32(1): 152-165 (1984); cited from earlier work

SMILES	Inhibition (AAI) of ear plug weight increase ([1]; dose 0.5 mg/ear) [%]	Inhibition (AAI) of ear plug weight increase ([1]; dose 1.0 mg/ear) [%]	Inhibition (AAI) of ear plug weight increase ([1]; dose 2.0 mg/ear)	inhibition of hind paw weight increase ([2]; daily dose 0.4 mg/kg of body weight) [%]	inhibition of hind paw weight increase ([2]; daily dose 2.0 mg/kg of body weight) [%]	anti-inflammatory activity [3]
CC(C)(C)c1cc(C(=O)c2cc[nH]c2)cc(C(C)(C)C)c1O [A, 3-(3,5-di-t-butyl-4-hydroxybenzoyl)pyrrole]	49	62	67% and 69%	54	70	
CC(C)(C)c1cc(C(=O)c2ccc[nH]2)cc(C(C)(C)C)c1O [B, 2-(3,5-di-t-butyl-4-hydroxybenzoyl)pyrrole, reference compound]			22%			
Cc1[nH]ccc1-c1cc(C(C)(C)C)c(O)c(C(C)(C)C)c1 [Formula VIII]						inactive
